From patent US20240317716A1, “METHOD FOR PREPARING XANTHINE OXIDASE INHIBITOR” (LG CHEM, LTD., priority 2021, published 2024) come the findings set out here.

≈ marks a conversion by molar mass, not a printed value.

By solubility is commonly meant how much of the substance goes into solution per volume.

This data set in a line: Solubility of 1-(3-cyano-1-isopropyl-indol-5-yl)pyrazole-4-carboxylic acid in organic solvents. It is filed as physicochemical. Conditions: organic solvent or mixture.

On to `CC(C)n1cc(C#N)c2cc(-n3cc(C(=O)O)cn3)ccc21` [1-(3-Cyano-1-isopropyl-indol-5-yl)pyrazole-4-carboxylic acid], for which the solubility is, setting by setting: (in ACN) at most 100 µg/mL; (in EtOAc) at most 100 µg/mL; (in MeOH) at most 100 µg/mL; (in acetone) 100 to 1000 µg/mL (≈ 340 to 3400 µM).
